The nature of data set [1]: Water exchange rate of dysprosium chelate. The format is physicochemical. An excerpt: This is a derivative form of DTPA. The chelator molecule of this example is considered a modification of the detectable detectable agent, wherein the chelator molecule has substitutions. The R2 of dysprosium chelates is inversely proportional to the water exchange rate, particularly for macromolecular dysprosium chelates at high field strengths (Vander 2002 and Caravan 2001) The dysprosium chelate detectable construct remainder in 25 has a greater R2 than the dysprosium chelate detectable construct remainder in 19b and also generates a larger change in tissue T2 after cleavage and diffusion away from the polymeric gadolinium detectable construct remainder. The R1 and R2 of 25 is determined using a 600 MHz NMR machine as described in Example 2.

The nature of data set [2]: Imaging DTT with 19b and 25 in agarose gels (MRI). To be noted: 0.5 mM in 2% agarose hydrogels, 50 mM DTT, vials filled with PBS. The protocol: The T2/T1 quenching detectable constructs 19b and 25 are loaded into 2% agarose hydrogels at a concentration of 0.5 mM. The hydrogels have a volume of 0.5 ml and are made in 10 ml scintillation vials. After the hydrogels form, the vials are filled with PBS buffer, pH 7.4, and then imaged in either a 9.4 Tesla MRI machine or a 17.8 Tesla MRI machine (University of Florida). The best TR/TE parameters are selected from calculations using the spin-echo signal equation with respect to the relaxation times and the TR/TE. The TE and TR are chosen such that the signal intensity of the hydrogels loaded with 19b and 25 is lower than or equal to pure agarose hydrogels. These calculations are based on the R1 and R2 of 19b and 25. DTT is added to the scintillation vials to generate a 50 mM concentration of DTT in the vials. The control hydrogels for this experiment consist of hydrogels that contain 50 mM DTT, without 19b or 25. The signal intensity of the gels is measured every hour for 48 hours. The T1 and the T2 of the gels is measured every hour, the T1 is measured using an inversion recovery sequence, for which the sequence parameters will be selected based on the values of R1 and R2 of 19b and 25. The T2 will be measured using a Carr-Purcell-Meiboom-Gill (CPMG) sequence with TEs chosen from the values of R2 for 19b and 25 (Haacke 1999).

A short description of data set [3]: R1 and R2 relaxivity from water T1/T2 measurements by NMR. To be noted: for R1: deuterium oxide, Unity-600 MHz, 25±0.1° C. The format is physicochemical. As to the method:
The R2 and R1 of 19a and 18a were calculated to show cleavage of the T2/T1 quenching detectable construct 19a generated a large enough change in R2 to allow for enzyme detection. The compound 19a represents an intact T2/T1 quenching detectable construct and the compound 18a represents a polymeric gadolinium detectable construct remainder resulting from cleavage of the reaction region. The R1 and R2 of 19a and 18a were measured in deuterium oxide in a Unity-600 MHz (Varian, Inc.) at 25±0.1° C. T1 and T2 measurements of water relaxation times were measured at various concentrations of 19a and 18a, and a plot of 1/T1 and 1/T2 was made against the concentration; the relaxivities R1 and R2 were determined by the slope of this graph using equation 1 (Caravan 1991), [formula] where 1/T1 is the relaxation rate of the water proton induced by the paramagnetic and diamagnetic species present in solution, and 1/T1 (diamagnetic) is the relaxation rate in the absence of the paramagnetic species. R1 and R2 of 18a were calculated to be 3.34 mM^−1s^− and 6.8 mM^−1s^−1 and the R1 and R2 of 19a were 4.0 mM^−1s^−1 and 21.77 mM^−1s^−1 (see FIG. 19).

In the next data set the target is MMP-9 (Homo sapiens, UniProt P14780). In words: Imaging MMP-9 with 40 and 42 in agarose gels (MRI). The data set is classed as biochemical. To be noted: agarose hydrogels.
Data set [4] deals with T1, PEG-Peptide-DTPA-Dy containing MMP-7 substrate peptide-DTPA.
T1 sequence: RPLALWRSGCG

The nature of data set [5]: Imaging DTT with 33 in agarose hydrogels (MRI). As to conditions: vials not filled with buffer. The protocol: An experimental procedure similar to that outlined in Example 4 is used to image DTT, except that the hydrogels are loaded with compound 33. The scintillation vials which contain the gels are not filled with buffer. This ensured that the cleaved dysprosium remains in the gel and that changes in T2 and signal intensity are due to changes in the rotational correlation time of dysprosium. The DTT is directly added to hydrogels as a concentrated solution. The gels are analyzed in a manner similar to Example 4. The control for this experiment is agarose hydrogels that just contain DTT. […] Problems with synthesis of 33 due to its high polydispersity may result from the free radical polymerization used to generate 28. This problem can be solved by using atom transfer radical polymerization (ATRP) to synthesize 28, using a protected methacrylic acid monomer and an (ATRP) initiator with a functional handle.

Data set [6] is described as follows: Diffusion coefficient in water (literature). The format is physicochemical. The text has this: Another example of a detectable construct of the present invention is shown in FIG. 15, wherein the detectable construct comprises a first detectable agent, comprising a metal ion and a chelator, covalently bonded to a linking region comprising PEG(polyethylene glycol) MW 80 kD, which is covalently bonded to a reaction region that is a substrate that can be cleaved by an enzyme or chemical process, which is covalently bonded to a second detectable agent comprising a chelator and a metal ion. In this particular example, the first detectable agent is Gadolinium associated with the chelator DTPA, and the second detectable agent is Dysprosium associated with the chelator DTPA. This detectable construct can be used in a method based upon the counteracting effects of T1 and T2 contrast agents on MRI signal intensity. Gadolinium is the T1 contrast agent and dysprosium is the T2 contrast agent. The dysprosium detectable agent is connected to the PEG chain through a cleavable linkage, such as a disulfide bond or an enzyme cleavable peptide linkage. Cleavage of 3a generates a low molecular weight dysprosium detectable construct remainder (4) and a high molecular weight PEG gadolinium detectable construct remainder. […]
At present, tumors can only be detected after they reach mm-cm dimensions. […]

The conditions of data set [7]: in water, cited from earlier work.
The subject of data set [8] is trypsin Dy only detectable construct (cleavable PEG-peptide-dysprosium, FIG. 24).
Data set [9] has as its system MMP-7 expressing SW480mat xenograft tumors. As to the kind of experiment: In vivo imaging of MMP-7 activity in mouse xenograft tumors (MRI). As to conditions: expectation; mice with MMP-7 expressing tumors, 9.4 Tesla. On the set-up: species or system athymic nude mice. The text has this: MMP-7 activity is imaged in athymic nude mice which have been given MMP-7 expressing xenograft tumors, using the T2/T1 quenching detectable construct, gadolinium-PEG-RPLALWRSC-dysprosium (46, FIG. 26). This compound contains a reaction region that is the MMP-7 cleavage site, RPLALWRSC, (SEQ ID NO: 2). […] See FIG. 26 for the synthesis of 46.
The resulting tumors are allowed to grow up to a size of 1-2 cm (4-6 weeks). During this period, the mice are imaged at various times points ranging from 3 days to 6 weeks after the injection of the tumor cells, according to the following procedure: after proper anesthetization, a catheter is inserted into the tail vein of the mice, a composition comprising the detectable construct 46 is injected through the catheter and the mice are imaged every hour for 24 hours in a 9.4 Tesla MRI machine (Emory University), measuring the MRI signal intensity, tissue T1 and tissue T2.
The signal intensity and T2 of the MMP-7 expressing tumors is compared against the control tumors. If the signal intensity of the MMP-7 expressing tumors is greater than the controls, then MMP-7 successfully cleaved 46, resulting in an increase in MRJ signal intensity and the imaging of MMP-7. Furthermore, data is obtained relating to the sensitivity of the method to image early tumor activity, as well as ratiometric information relating to tumor growth.

The mark [10] stands for this setting: listed as DTPA-Dy detectable construct remainder.

Read-outs that look alike come from different tables or passages of the source.

Sequence of MMP-9 (P14780 94-707, species assumed): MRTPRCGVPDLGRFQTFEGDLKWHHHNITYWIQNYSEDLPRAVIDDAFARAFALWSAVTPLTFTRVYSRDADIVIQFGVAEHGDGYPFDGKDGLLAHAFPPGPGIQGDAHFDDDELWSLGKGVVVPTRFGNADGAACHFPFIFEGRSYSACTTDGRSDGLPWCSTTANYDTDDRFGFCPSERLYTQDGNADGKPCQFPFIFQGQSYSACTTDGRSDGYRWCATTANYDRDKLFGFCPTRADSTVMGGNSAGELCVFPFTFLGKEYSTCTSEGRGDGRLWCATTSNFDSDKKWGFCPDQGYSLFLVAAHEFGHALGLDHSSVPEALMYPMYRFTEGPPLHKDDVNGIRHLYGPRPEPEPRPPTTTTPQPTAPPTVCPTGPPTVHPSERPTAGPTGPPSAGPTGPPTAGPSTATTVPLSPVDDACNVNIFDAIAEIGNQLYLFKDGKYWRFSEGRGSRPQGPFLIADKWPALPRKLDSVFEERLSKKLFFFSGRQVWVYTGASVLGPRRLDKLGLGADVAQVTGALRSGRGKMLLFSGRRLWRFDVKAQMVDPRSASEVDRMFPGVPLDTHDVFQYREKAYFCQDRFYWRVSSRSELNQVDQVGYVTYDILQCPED

Consider “Gadolinium-PEG-S—S-Dysprosium-Diamide [Compound 25]”, for which the “water exchange rate τm, times lower than the dysprosium chelate in 19b” value in [1] is 34 times. The “MRI signal intensity of agarose gels after addition of DTT” value (from here on “MRI signal intensity of agarose gels”) in [2] is “increases the signal intensity”.

“Gadolinium-PEG-S—S-Dysprosium [Compound 19a]”: the “decrease in R1 between 19a and 18a” value in data set [3] (19a versus 18a) is reported as 16.5%. In addition, in [3], the R1 is 4.0 mM⁻¹ s⁻¹.

For “gadolinium-poly(methacrylic acid)-Pro-Val-Gly-Leu-Ile-Gly-dysprosium [Compound 42]”, the “MRI signal intensity on cleavage by MMP-9” value on MMP-9 is “increased signal intensity”.

As for MMP-7, the “T2 signal (NMR in D2O buffer, 37 C, 4.5 hours)” value in data set [4] is “upon treatment of micelles with MMP-7 that the T2 signal increase by over two-fold”.

On to “Gadolinium-Poly(Methacrylic Acid)-PEG-S—S-Dysprosium [Compound 33]”, for which the “MRI signal intensity of agarose gels” value in [5] is “increases the signal intensity”.

In the case of “dysprosium-diethylenetriaminepentaacetic (DTPA) [DTPA-dysprosium]”, the “ratio of diffusion coefficient to that of PEG 80 kD” value in data set [6] was 17 fold; in data set [6] (setting [10]), “roughly 17 fold”. Further, the results for the “diffusion coefficient Dwater” value in data set [7] and in data set [7] (setting [10]) were 3.8×10^−6 cm^2/s and “approximately 3.8×10^−6 cm^2/s”, respectively.

With trypsin, the “water T2 (400 MHz NMR in D2O), construct 16 mg/ml, trypsin 0.025 mg/ml” value in [8] was “After adding trypsin, T2 increases by 52.3%”.

On to “Gadolinium-PEG-S—S-Dysprosium [Compound 19b]”, for which, in data set [2], the “MRI signal intensity of agarose gels” value is listed as “increases the signal intensity”.

On to Thiol-PEG-DTPA-Gd [Compound 18a], for which the R1 in [3] is 3.34 mM⁻¹ s⁻¹.

Take “gadolinium-PEG-Pro-Val-Gly-Leu-Ile-Gly-dysprosium [Compound 40]”: the “MRI signal intensity on cleavage by MMP-9” value at MMP-9 was “increase in signal intensity”.

For “gadolinium-PEG-RPLALWRSC-dysprosium [Compound 46]”, the “MRI signal intensity on cleavage by MMP-7” value in data set [9] was “increase in MRI signal intensity”.

The values above are taken from patent US20080014149A1, “Methods and Compositions for Imaging and Biomedical Applications” (priority 2004, published 2008).
